In patent publication US10919896B2, “Preparation and uses of pyrimidinone derivatives” (Cancer Research Technology Limited, priority 2016, dated 2021):

Assays:
[1] = system: Cdc7 (pS40MCM2 levels in HCT116 cells); assay: Cdc7 Cell Pharmacodynamics Assay Method 2B: pS40MCM2 levels in HCT116 cells, 18 hours; assay type: cell-based; conditions: Homo sapiens, HCT-116, read-out: Biomarker Method 2B (pEC50) (converted)
Excerpt: This protocol describes a method to investigate the inhibition of Cdc7 activity by measuring pS40MCM2 levels in cells, after treatment with compounds.
• HCT116 cells (ATCC, #CCL-247) • McCoys 5A with L-glutamine (Cellgro, #10-050-CV) • 10% FCS (Cellgro, #35-010-CV) • D-PBS without CaCl2 and MgCl2 (Cellgro, #21-031-CV) • Trypsin/EDTA (Cellgro, #25-052-CL) • BSA (Calbiochem, 126593) • Cell Extraction Buffer (Invitrogen FNN0011) • Protease inhibitor cocktail (Sigma P-2714) • PMSF 0.3M stock in DMSO (Sigma P7626) • Antibody-rabbit pMCM2 Ser40 (Abcam, AB133243) • Antibody-goat MCM2 (Bethyl #A300-122A) • Antibody-goat Anti Rabbit IgG HRP (Thermo, 31462) • SuperSignal ELISA Pico Chemiluminescent Substrate (Perbio Science UK Ltd 37069) • 10×PBS (Growcells, MRGF-6236) • Triton X100 (Sigma, P-T8787) • DMSO (Fisher, D128-1) • 2-Propanol (J. T. Baker, 9095-03) Method • Seed 1×10^6 HCT116 cells into each of two 175 cm^2 flask containing 30 mL Cell Growth Media and incubate at 37° C., 5% CO2 for 3 days. • Harvest the cells from one T175 cm^2 flask and count. • Dilute with Cell Growth Media to a cell density of 2×10^5. Dispense 100 μL to each well (20,000 HCT116 cells/well) of TC treated 96-well plate(s). • Allow cells to settle overnight in incubator set at 37° C. and 5% CO2. • Cell treatment: Transfer 0.25 μL/well from the compound plate to the wells of the cell plate(s). This is a 1:400 dilution of compound in the assay. • Once all cells are treated place the cells back to the incubator and incubate for either 6 hours (Method 2A) or 18 hours (Method 2B). • Dilute the capture antibody (total MCM2#A300-122A) 1 in 250 in the required volume of PBS (5 mL per assay plate, plus 5 mL for dead volume) and add 50 μL to each well of a Hybond plate except wells A12 & B12. Seal the plate and incubate at room temperature for a minimum of 2 hours. • Defrost aliquot of Invitrogen Cell Extraction Buffer (FNN0011) on ice and supplement with appropriate volume of both Sigma protease inhibitor cocktail (P-2714) and PMSF (final conc 1 mM from a 1 M stock in DMSO). • After the 6 hour or 18 hour cell treatment time, tap out the media from the assay plates and place them in the −70° C. freezer for at least 5 minutes. • Flick out the remaining liquid in the previously prepared capture Ab plate(s) and add 200 μL 2% BSA per well. Incubate for 1 hour at room temperature. • Remove plates from freezer and add 20 μL of ice cold complete lysis buffer. Incubate cells for 30 minutes at 4° C. • Add 30 μL per well 2% BSA • At the end of the 1 hour incubation, wash the Capture/ELISA plate(s) with Wash Buffer on the BioTek plate washer. • Transfer 40 μL per well of the lysis plate(s) to the same wells in the Capture/ELISA plate. Incubate cells overnight at 4° C. • At the end of the overnight incubation, wash the ELISA plate(s) with Wash Buffer on BioTek plate washer. • Prepare Detection Antibody Buffer and dispense 50 μL to all wells of ELISA plate(s) except wells G1 & H1. Cover plate and incubate at room temperature for 2 hours with gentle shaking. • At the end of the 2 hour incubation, wash the ELISA plate(s) with Wash Buffer on the BioTek plate washer. • Prepare the Conjugated Antibody Buffer and dispense 50 μL to all wells of ELISA plate(s). • Cover the plate and incubate at room temperature for 1 hour with gentle shaking. • At the end of the 1 hour incubation, wash the ELISA plate(s) with Wash Buffer on the BioTek plate washer. • Prepare Substrate Buffer and dispense 50 μL to all wells of ELISA plate(s). • Incubate for a minimum of 10 minutes and read plates on the EnVision 2100 Multilabel Reader (Mirror: Luminescence (404) & Luminescence 700 (212); Measurement Height: 6.5 mm; Measurement Time: 0.2 s). Method 3

Cdc7/Dbf4 = Cdc7/Dbf4 (Homo sapiens, UniProt O00311); assay: Cdc7 Biochemical Assay Method 3: Cdc7/Dbf4 Enzyme TR-FRET Assay measuring pS40MCM2; conditions: 1 μM ATP, read-out: Biochemical Method 3 (pIC50) (converted)
Method in brief: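 2.5 nM Cdc7/Dbf4 incubated with 100 nM biotinylated MCM2-derived peptide and 1 μM ATP, 120 minutes at 25° C. Phospho-S40 detected by TR-FRET using anti-pS40 Mcm2 antibody, terbium anti-rabbit secondary and streptavidin-Alexa Fluor488.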

Chain of Cdc7/Dbf4 (O00311 whole entry): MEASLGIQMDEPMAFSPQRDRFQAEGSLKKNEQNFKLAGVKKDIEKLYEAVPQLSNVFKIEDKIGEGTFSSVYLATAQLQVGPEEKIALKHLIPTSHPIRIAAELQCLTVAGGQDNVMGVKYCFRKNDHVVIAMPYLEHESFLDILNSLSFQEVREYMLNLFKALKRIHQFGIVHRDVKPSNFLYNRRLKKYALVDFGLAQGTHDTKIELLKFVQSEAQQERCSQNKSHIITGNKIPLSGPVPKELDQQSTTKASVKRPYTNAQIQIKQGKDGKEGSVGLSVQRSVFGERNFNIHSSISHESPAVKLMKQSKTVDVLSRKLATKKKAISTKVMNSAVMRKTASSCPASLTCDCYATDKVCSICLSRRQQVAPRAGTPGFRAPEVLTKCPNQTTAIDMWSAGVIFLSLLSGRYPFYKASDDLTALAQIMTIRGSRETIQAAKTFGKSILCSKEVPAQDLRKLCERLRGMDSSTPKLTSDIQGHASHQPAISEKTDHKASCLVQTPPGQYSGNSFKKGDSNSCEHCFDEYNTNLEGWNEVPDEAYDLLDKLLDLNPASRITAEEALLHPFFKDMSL
Chain of Cdc7/Dbf4 (Q9UBU7 whole entry partner): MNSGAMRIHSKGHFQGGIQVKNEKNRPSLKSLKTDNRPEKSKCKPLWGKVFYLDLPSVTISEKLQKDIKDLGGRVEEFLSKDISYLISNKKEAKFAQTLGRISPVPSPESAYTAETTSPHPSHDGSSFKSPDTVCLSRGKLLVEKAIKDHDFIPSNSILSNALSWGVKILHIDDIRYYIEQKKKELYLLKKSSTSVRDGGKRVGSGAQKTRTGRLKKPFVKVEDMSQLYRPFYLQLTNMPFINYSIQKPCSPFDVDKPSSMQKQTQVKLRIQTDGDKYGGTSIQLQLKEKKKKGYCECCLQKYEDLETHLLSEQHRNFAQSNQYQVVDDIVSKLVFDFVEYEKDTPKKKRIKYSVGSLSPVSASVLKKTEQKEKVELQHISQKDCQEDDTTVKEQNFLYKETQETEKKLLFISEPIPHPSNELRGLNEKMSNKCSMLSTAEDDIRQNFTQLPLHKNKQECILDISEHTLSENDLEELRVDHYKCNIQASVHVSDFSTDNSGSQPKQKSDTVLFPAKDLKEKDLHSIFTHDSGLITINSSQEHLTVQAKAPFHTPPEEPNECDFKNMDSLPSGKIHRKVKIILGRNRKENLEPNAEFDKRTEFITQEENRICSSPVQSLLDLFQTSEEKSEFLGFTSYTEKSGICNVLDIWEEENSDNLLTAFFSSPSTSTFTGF

SMILES | EC50 [1] | IC50 (Cdc7/Dbf4)
C[C@@H]1CN(c2nc(-c3ccnc(F)c3)[nH]c(=O)c2Cl)C[C@H](C)O1 [Compound 201] | 813 nM | 4.17 nM
O=c1[nH]c(-c2ccnc(F)c2)nc(N2CCCC23CCCNC3)c1Cl (centres unmarked) [Compound 260] | 72.4 nM | 1.41 nM
O=c1[nH]c(-c2ccnc(F)c2)nc(N2CC[C@@H]3CNC[C@@H]32)c1Cl [Compound 261] | 537 nM | 0.813 nM
O=c1[nH]c(-c2ccnc(F)c2)nc(N2CCCC3NCCC32)c1Cl (centres unmarked) [Compound 275] | 2090 nM | 0.794 nM
O=c1[nH]c(-c2ccnc(F)c2)nc(N2CCN3CCC2CC3)c1Cl [Compound 293] | 29.5 nM | 0.363 nM
CC[C@@H]1COCCN1c1nc(-c2ccnc(F)c2)[nH]c(=O)c1Cl [Compound 335] | 457 nM | 1.1 nM
CC1CN(c2nc(-c3ccnc(F)c3)[nH]c(=O)c2Cl)C(C)CO1 (centres unmarked) [Compound 340] | 174 nM | 2.51 nM
N#C[C@@H]1CNCCN1c1nc(-c2ccnc(F)c2)[nH]c(=O)c1Cl [Compound 345] | 1740 nM | 1.29 nM
O=c1[nH]c(-c2ccnc(F)c2)nc(N2CCN3CCC[C@H]3C2)c1Cl [Compound 348] | 257 nM | 1.95 nM
CC1CCNCCN1c1nc(-c2ccnc(F)c2)[nH]c(=O)c1Cl (centres unmarked) [Compound 351] | 138 nM | 1.35 nM
C[C@@H]1CNCCCN1c1nc(-c2ccnc(F)c2)[nH]c(=O)c1Cl [Compound 352] | 437 nM | 3.63 nM
CC1COCCCN1c1nc(-c2ccnc(F)c2)[nH]c(=O)c1Cl (centres unmarked) [Compound 355] | 288 nM | 2.69 nM
C[C@@H]1CN(c2nc(-c3ccnc(F)c3)[nH]c(=O)c2Cl)[C@H](C)CO1 [Compound 357] | 200 nM | 2.09 nM
CC1OCCN(c2nc(-c3ccnc(F)c3)[nH]c(=O)c2Cl)C1C (centres unmarked) [Compound 359] | 27.5 nM | 2 nM
O=c1[nH]c(-c2ccncc2)nc(N2CC(F)(F)OC(F)(F)C2)c1Cl [Compound 413, 5-chloro-2-(4-pyridyl)-4-(2,2,6,6-tetrafluoromorpholin-4-yl)-1H-pyrimidin-6-one] | 309 nM | 1.38 nM

Further lines, results first:

EC50 [1] | IC50 (Cdc7/Dbf4) | SMILES
64.6 nM | 0.49 nM | O=C1COCCN(c2nc(-c3ccnc(F)c3)[nH]c(=O)c2Cl)C1 [Compound 208]
398 nM | 4.37 nM | O=c1[nH]c(-c2ccnc(F)c2)nc(N2CCC(N3CCOCC3)CC2)c1Cl [Compound 244]
562 nM | 0.832 nM | O=c1[nH]c(-c2ccnc(F)c2)nc(N2CCCC3(CCNC3)C2)c1Cl (centres unmarked) [Compound 258]
295 nM | 1.48 nM | CN[C@H]1CCN(c2nc(-c3ccnc(F)c3)[nH]c(=O)c2Cl)C1 [Compound 271]
501 nM | 5.5 nM | CN(C)[C@H]1CCN(c2nc(-c3ccnc(F)c3)[nH]c(=O)c2Cl)C1 [Compound 272]
427 nM | 0.646 nM | C[C@]1(N)CCN(c2nc(-c3ccnc(F)c3)[nH]c(=O)c2Cl)C1 [Compound 273]
282 nM | 1.07 nM | O=c1[nH]c(-c2ccnc(F)c2)nc(N2CCCCC2)c1Cl [Compound 277]
457 nM | 1.05 nM | C[C@@H]1CCCCN1c1nc(-c2ccnc(F)c2)[nH]c(=O)c1Cl [Compound 281]
234 nM | 2.63 nM | CO[C@@H]1CCCN(c2nc(-c3ccnc(F)c3)[nH]c(=O)c2Cl)C1 [Compound 282]
389 nM | 2.09 nM | O=c1[nH]c(-c2ccnc(F)c2)nc(N2CCC3(COC3)C2)c1Cl [Compound 284]
1020 nM | 7.59 nM | O=c1[nH]c(-c2ccnc(F)c2)nc(N2CCNC(C(F)(F)F)CC2)c1Cl (centres unmarked) [Compound 296]
912 nM | 3.24 nM | CC1(C)CN(c2nc(-c3ccnc(F)c3)[nH]c(=O)c2Cl)CCN1 [Compound 297]
331 nM | 4.07 nM | CN1CCCN(c2nc(-c3ccnc(F)c3)[nH]c(=O)c2Cl)CC1 [Compound 298]
115 nM | 3.02 nM | CC1(C)CN(c2nc(-c3ccnc(F)c3)[nH]c(=O)c2Cl)CCO1 [Compound 300]
1910 nM | 10.5 nM | CC1(C)CN(c2nc(-c3ccnc(F)c3)[nH]c(=O)c2Cl)CCCO1 [Compound 301]
126 nM | 2.09 nM | CC1CCN(c2nc(-c3ccnc(F)c3)[nH]c(=O)c2Cl)CCN1 (centres unmarked) [Compound 303]
214 nM | 1.38 nM | CC1(F)CNCCN(c2nc(-c3ccnc(F)c3)[nH]c(=O)c2Cl)C1 (centres unmarked) [Compound 304]
174 nM | 1.29 nM | N#CC[C@H]1CN(c2nc(-c3ccnc(F)c3)[nH]c(=O)c2Cl)CCN1 [Compound 306]
372 nM | 1.12 nM | C[C@@H]1CN(c2nc(-c3ccnc(F)c3)[nH]c(=O)c2Cl)CCO1 [Compound 337]
178 nM | 0.708 nM | O=c1[nH]c(-c2ccnc(F)c2)nc(N2CCCOCC2)c1Cl [Compound 338]
316 nM | 3.63 nM | O=c1[nH]c(-c2ccnc(F)c2)nc(N2CCN3CC(F)(F)C[C@H]3C2)c1Cl [Compound 347]
155 nM | 2.19 nM | O=c1[nH]c(-c2ccnc(F)c2)nc(N2CCN(CC(F)F)CC2)c1Cl [Compound 350]
